One assay deals with hyaluronan synthase. The note with it: read-out: HA synthase activity (IC50); membranes of human fibroblasts.
For a further assay, the target named is T1, MRP7 (Homo sapiens, UniProt Q5T3U5).
T1 sequence (Q5T3U5 1-1492): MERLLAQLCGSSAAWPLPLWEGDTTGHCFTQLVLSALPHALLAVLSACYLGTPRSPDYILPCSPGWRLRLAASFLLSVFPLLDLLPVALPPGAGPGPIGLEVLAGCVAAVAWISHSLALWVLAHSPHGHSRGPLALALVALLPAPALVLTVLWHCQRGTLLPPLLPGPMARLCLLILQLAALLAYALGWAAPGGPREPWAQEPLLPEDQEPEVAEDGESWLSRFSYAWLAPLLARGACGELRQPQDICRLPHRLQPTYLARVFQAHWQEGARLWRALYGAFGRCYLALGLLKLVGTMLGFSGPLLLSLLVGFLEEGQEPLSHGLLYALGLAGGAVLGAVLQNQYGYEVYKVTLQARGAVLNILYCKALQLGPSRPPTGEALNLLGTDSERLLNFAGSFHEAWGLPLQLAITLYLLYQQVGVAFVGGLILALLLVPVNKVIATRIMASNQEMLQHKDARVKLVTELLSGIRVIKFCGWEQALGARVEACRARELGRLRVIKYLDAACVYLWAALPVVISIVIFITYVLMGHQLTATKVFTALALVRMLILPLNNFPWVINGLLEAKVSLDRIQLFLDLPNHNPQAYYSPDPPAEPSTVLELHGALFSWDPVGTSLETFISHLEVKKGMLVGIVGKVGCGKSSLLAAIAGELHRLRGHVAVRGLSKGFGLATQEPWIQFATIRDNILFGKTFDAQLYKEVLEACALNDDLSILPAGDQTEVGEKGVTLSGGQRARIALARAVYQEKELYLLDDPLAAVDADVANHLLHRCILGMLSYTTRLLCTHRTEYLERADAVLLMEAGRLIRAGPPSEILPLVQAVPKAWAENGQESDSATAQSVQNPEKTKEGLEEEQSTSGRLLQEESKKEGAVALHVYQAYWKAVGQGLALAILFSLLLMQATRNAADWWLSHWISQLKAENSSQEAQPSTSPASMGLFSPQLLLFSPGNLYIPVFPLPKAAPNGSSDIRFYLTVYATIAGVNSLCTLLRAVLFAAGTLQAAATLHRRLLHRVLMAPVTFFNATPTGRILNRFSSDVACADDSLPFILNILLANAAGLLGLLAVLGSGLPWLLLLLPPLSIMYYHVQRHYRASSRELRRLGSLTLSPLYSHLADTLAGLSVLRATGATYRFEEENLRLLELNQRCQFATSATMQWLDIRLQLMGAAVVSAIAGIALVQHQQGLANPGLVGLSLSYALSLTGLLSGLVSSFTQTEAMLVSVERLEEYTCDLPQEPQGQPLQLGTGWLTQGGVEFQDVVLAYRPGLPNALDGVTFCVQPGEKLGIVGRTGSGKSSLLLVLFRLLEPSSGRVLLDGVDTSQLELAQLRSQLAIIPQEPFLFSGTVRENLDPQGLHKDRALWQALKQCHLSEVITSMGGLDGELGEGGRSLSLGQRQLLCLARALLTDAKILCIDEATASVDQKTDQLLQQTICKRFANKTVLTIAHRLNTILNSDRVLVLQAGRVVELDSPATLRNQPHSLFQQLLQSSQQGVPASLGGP
The note with it: cited from earlier work.

The next assay deals with MDR1 (Homo sapiens, UniProt P08183). The conditions noted are these: cited from earlier work.
Chain of MDR1 (P08183 whole entry): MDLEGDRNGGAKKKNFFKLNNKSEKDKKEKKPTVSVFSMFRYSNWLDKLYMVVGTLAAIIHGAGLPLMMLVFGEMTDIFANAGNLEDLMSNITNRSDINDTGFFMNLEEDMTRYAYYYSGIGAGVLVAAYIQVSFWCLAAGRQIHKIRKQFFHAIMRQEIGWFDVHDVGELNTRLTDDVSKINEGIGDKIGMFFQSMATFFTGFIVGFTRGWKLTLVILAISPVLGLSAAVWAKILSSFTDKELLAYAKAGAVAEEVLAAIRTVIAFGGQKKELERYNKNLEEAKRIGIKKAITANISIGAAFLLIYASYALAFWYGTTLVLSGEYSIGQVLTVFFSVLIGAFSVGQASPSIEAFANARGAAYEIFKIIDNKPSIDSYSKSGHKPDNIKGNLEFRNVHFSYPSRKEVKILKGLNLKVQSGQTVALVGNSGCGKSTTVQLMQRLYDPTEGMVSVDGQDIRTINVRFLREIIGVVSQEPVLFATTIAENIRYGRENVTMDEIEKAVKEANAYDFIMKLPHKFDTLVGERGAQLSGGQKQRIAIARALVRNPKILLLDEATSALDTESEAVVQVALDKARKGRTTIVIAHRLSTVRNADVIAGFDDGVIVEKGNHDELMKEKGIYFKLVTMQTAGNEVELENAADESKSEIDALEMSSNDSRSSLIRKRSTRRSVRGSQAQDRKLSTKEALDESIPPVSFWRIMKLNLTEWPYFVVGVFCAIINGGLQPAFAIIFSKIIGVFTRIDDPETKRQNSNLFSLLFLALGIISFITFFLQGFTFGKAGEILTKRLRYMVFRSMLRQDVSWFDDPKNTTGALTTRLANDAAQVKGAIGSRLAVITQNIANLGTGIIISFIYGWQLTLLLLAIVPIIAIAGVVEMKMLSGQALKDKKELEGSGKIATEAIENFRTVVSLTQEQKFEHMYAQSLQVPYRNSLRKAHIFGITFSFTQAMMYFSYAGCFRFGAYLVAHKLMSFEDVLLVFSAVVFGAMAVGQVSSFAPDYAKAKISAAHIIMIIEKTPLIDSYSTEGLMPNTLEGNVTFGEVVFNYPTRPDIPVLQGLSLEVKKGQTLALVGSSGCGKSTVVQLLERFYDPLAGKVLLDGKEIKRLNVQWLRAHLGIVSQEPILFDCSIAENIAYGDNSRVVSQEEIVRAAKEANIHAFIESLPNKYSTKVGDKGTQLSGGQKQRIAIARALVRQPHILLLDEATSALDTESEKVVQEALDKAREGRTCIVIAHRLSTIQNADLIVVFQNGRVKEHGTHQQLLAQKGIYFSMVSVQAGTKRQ
Another assay deals with MRP1 (Homo sapiens, UniProt P33527). The note with it: read-out: published inhibitory concentrations IC50 or Ki, MRP1; cited from earlier work.
Chain of MRP1 (P33527 whole entry): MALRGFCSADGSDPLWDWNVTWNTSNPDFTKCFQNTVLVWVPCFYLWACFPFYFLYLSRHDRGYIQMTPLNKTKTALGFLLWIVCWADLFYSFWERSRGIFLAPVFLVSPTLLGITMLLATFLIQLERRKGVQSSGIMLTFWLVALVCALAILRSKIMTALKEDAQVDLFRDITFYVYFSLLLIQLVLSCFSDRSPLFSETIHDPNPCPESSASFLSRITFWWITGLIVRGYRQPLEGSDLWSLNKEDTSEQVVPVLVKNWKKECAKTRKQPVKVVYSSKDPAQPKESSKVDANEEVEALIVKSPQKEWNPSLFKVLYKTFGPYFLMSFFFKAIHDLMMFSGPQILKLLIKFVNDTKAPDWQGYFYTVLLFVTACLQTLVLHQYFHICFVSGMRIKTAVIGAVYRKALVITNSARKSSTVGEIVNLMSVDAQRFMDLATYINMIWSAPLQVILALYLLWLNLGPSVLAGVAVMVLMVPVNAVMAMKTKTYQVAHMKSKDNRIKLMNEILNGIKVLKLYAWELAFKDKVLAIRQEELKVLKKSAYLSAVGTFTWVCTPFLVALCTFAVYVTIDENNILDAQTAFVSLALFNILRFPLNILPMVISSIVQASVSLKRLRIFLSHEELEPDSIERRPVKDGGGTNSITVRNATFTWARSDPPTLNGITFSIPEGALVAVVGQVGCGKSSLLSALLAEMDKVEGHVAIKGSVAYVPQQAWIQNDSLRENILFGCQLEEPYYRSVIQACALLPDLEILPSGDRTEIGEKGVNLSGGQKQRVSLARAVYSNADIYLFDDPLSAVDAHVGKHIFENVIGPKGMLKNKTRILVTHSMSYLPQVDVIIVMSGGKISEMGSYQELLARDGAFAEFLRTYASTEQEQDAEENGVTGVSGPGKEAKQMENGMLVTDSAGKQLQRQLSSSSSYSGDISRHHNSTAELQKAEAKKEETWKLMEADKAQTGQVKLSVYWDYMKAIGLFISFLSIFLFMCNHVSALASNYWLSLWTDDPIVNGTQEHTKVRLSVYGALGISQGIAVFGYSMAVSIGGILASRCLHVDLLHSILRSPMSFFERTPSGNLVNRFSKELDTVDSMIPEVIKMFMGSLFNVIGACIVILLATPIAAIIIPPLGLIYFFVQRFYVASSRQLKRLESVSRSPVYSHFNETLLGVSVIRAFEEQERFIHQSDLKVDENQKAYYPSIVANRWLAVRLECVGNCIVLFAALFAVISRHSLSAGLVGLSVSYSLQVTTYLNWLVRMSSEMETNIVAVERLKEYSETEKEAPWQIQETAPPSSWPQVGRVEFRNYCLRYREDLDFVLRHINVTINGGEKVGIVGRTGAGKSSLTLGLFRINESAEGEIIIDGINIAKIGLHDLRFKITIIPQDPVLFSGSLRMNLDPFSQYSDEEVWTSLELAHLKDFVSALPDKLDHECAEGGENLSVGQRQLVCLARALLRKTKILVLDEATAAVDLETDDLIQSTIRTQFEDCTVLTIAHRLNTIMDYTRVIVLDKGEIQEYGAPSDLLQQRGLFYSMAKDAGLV
The test system of another assay is hyaluronan transport. The assay is described as follows: Inhibition of hyaluronan transport (export) from human fibroblasts, discussion of Example 9. The note with it: human fibroblasts.

pIC50: −log10 of the molar value. Where two headings read alike, the source gives them in different places.

Method for hyaluronan transport: Cells from five culture flasks (180 cm2 growth area) were washed with cold phosphate buffered saline (PBS), harvested with the aid of a rubber policeman, sedimented at 1500 g for 5 min and suspended in 30 ml of ice-cold PBS. The cells were transferred into a Parr-cell disruption bomb, exposed to a nitrogen pressure of 900 psi for 15 min and disrupted by nitrogen cavitation [18] and the particulate fraction was obtained by centrifugation at 40000 g for 20 min. […] Hyaluronan synthesis was stopped by adding a solution of 10% sodium dodecylsuifate (SDS) to a final concentration of 1%. The mixtures were applied to descending paper chromatography that was developed with ethanol/aq. 1 M ammonium acetate pH 5.5 (13:7) as solvent. After 18 h the radioactivity of [14C]hyaluronan at the origin was determined.
Trypsinised fibroblasts were suspended in Dulbecco's medium at 10^5 cells/ml and 100 μl aliquots were transferred to a 96 well microtiter plate. The first row received 200 μl of the suspension and 20 μl of the multidrug resistance inhibitors dissolved in DMSO at concentrations of 4 mM. A serial dilution to the inhibitors was established by transfer of 100 μl aliquots from the first row to the following rows. All experiments were performed in duplicates. […] The cells were incubated for 2 days at 37° C. and aliquots (5 and 20 μl) of the culture medium were used for measurement of the hyaluronan concentration in the cell culture medium by an ELISA [19]. […] The mixtures were transferred to the hyaluronan-coated test plate and incubated for 1 hour at 37° C. The microtiter plate was washed three times with buffer A and incubated with 100 μl/well of a solution of streptavidin-horseraddish-peroxidase (Amersham) at a dilution of 1:100 in phosphate buffered saline, 0.1% Tween-20 for 30 min at room temperature. The plate was washed five times with buffer A and the colour was developed by incubation with a 100 μl/well of a solution of 5 mg o-phenylenediamine and 5 μl 30% H2O2 in 10 ml of 0.1 M citrate-phosphate buffer pH 5.3 for 25 min at room temperature. The adsorption was read at 490 nm. The concentrations in the samples were calculated from a logarithmic regression curve of the hyaluronan standard solutions.
Three parameters were measured: 1. The amount of hyaluronan produced during growth into the culture supernatant. 2. The hyaluronan synthase activity in particulate membrane fractions to eliminate the possibility that inhibition of hyaluronan production in cell culture could be caused indirectly by cellular mediators. 3. The effect on cell proliferation, because hyaluronan synthesis is also required for detachment during mitosis and growth of the human HT1080 cell line [14].

In the case of `CCCN(CCC)S(=O)(=O)c1ccc(C(=O)O)cc1` [Probenecid], the pIC50 is 3.70 in the assay with hyaluronan synthase; under 2.70 at MDR1 (read-out: IC50 for MDR1); under 2.70 on MDR1 (read-out: published inhibitory concentrations IC50 or Ki, MDR1); 3.70 to 4.00 at MRP1. Moreover, the “inhibition of 17β-glucuronosyl-estradiol export by MRP7” value on MRP7 is “weak inhibitor”. Moreover, the “published inhibitory concentrations IC50 or Ki, MRP7” value on MRP7 is given as “weak”. Also, in the assay on hyaluronan transport, the “inhibition of hyaluronan transport (words)” value was “inhibited hyaluronan transport”.

The values above are taken from US20080152640A1, “Means and Methods For Treating a Disease Which is Associated With an Excess Transport of Hyaluronan Across a Lipid Bilayer” (priority 2003, published 2008).
